Activity calls are given as the source filed them. The calls are words filed in the database; no cut-off is given here.
Experiments:
Candida albicans [1] = test: Synergistic antifungal activity against Clinical FLC-resistant Candida albicans 23 measured after 24 hrs in presence of fluconazole by microdilution method; type: functional
Candida albicans [2] = test: Synergistic antifungal activity against Clinical FLC-resistant Candida albicans 23 assessed as fractional inhibitory concentration index measured after 24 hrs in presence of fluconazole by microdilution method; type: functional
Candida albicans [3] = test: Antifungal activity against clinical FLC-resistant Candida albicans 381 measured after 24 hrs by microdilution method; type: functional
Candida albicans [4] = test: Antifungal activity against clinical FLC-resistant Candida albicans 3511 measured after 24 hrs by microdilution method; type: functional
Candida albicans [5] = test: Antifungal activity against clinical FLC-resistant Candida albicans 4574 measured after 24 hrs by microdilution method; type: functional
Candida albicans [6] = test: Antifungal activity against FLC-resistant Candida albicans ATCC 10231 measured after 24 hrs by microdilution method; type: functional
Candida albicans [7] = test: Synergistic antifungal activity against clinical FLC-resistant Candida albicans 602 measured after 24 hrs by microdilution method; type: functional
Candida albicans [8] = test: Synergistic antifungal activity against clinical FLC-resistant Candida albicans 550 measured after 24 hrs by microdilution method; type: functional
Candida albicans [9] = test: Synergistic antifungal activity against clinical FLC-resistant Candida albicans 3816 measured after 24 hrs by microdilution method; type: functional
Candida albicans [10] = test: Synergistic antifungal activity against clinical FLC-resistant Candida albicans 4508 measured after 24 hrs by microdilution method; type: functional
Candida albicans [11] = test: Synergistic antifungal activity against clinical FLC-resistant Candida albicans 4574 measured after 24 hrs by microdilution method; type: functional
Candida albicans [12] = test: Synergistic antifungal activity against clinical FLC-resistant Candida albicans 550 assessed as fractional inhibitory concentration index measured after 24 hrs by microdilution method; type: functional
Candida albicans [13] = test: Synergistic antifungal activity against clinical FLC-resistant Candida albicans 800 assessed as fractional inhibitory concentration index measured after 24 hrs by microdilution method; type: functional
Candida albicans [14] = test: Synergistic antifungal activity against clinical FLC-resistant Candida albicans 4508 assessed as fractional inhibitory concentration index measured after 24 hrs by microdilution method; type: functional
Candida albicans [15] = test: Synergistic antifungal activity against FLC-resistant Candida albicans ATCC 14053 assessed as inhibition of rhodamine 6G efflux measured within 30 mins in presence of fluconazole by Rhodamine 6G staining based fluorescence assay; type: functional, organism-based
Candida albicans [16] = test: Synergistic antifungal activity against FLC-resistant Candida albicans ATCC 14053 cultured in spider medium assessed as inhibition of hyphal formation at 1 ug/ml measured after 4 to 8 hrs in presence of fluconazole by inverted microscopy; type: functional, organism-based; settings: dose 1.0 µg/ml, time 4-8 hrs
Candida albicans [17] = test: Synergistic antifungal activity against FLC-resistant Candida albicans ATCC 14053 assessed as inhibition of hyphal formation by measuring down regulation of ALS3 gene expression at 1 ug/ml measured after 16 to 18 hrs in presence of fluconazole by qRT-PCR analysis; type: functional, organism-based; settings: dose 1.0 µg/ml, time 16-18 hrs
Candida albicans [18] = test: Antifungal activity against FLC-resistant Candida albicans ATCC 14053 cultured in SD +10% FBS liquid medium assessed as inhibition of hyphal formation at 1 ug/ml measured after 2 hrs by inverted microscopy; type: functional, organism-based; settings: dose 1.0 µg/ml
Candida albicans [19] = test: Synergistic antifungal activity against FLC-resistant Candida albicans ATCC 14053 cultured in SD +10% FBS liquid medium assessed as inhibition of hyphal formation at 1 ug/ml measured after 2 hrs in presence of fluconazole by inverted microscopy; type: functional, organism-based; settings: dose 1.0 µg/ml
Candida albicans [20] = test: Synergistic antifungal activity against FLC-resistant Candida albicans ATCC 14053 cultured in SD +10% FBS liquid medium assessed as inhibition of hyphal formation at 1 ug/ml measured after 4 to 8 hrs in presence of fluconazole and dibutyryl-cAMP by inverted microscopy; type: functional, organism-based; settings: dose 1.0 µg/ml, time 4-8 hrs
Candida albicans [21] = test: Synergistic antifungal activity against FLC-resistant Candida albicans ATCC 14053 cultured in spider medium assessed as inhibition of hyphal formation at 1 ug/ml measured after 4 to 8 hrs in presence of fluconazole and dibutyryl-cAMP by inverted microscopy; type: functional, organism-based; settings: dose 1.0 µg/ml, time 4-8 hrs
Candida albicans [22] = test: Synergistic antifungal activity against FLC-resistant Candida albicans ATCC 14053 assessed as reduction in intracellular ATP level at 1 ug/ml measured after 16 to 18 hrs in presence of fluconazole by luminescence assay; type: functional, organism-based; settings: dose 1.0 µg/ml, time 16-18 hrs
[23] = Toxicity in Balb/c mouse assessed as death at 7.5 to 15 mg/kg, ig measured daily for 6 days in presence of fluconazole; type: organism-based; settings: in vivo, po, 144 h, dose 7.5-15 mg/kg, time 6 day
Candida albicans [24] = test: In vivo antifungal activity against FLC-resistant Candida albicans ATCC 14053 infected in Balb/c mouse assessed as survival rate at 15 mg/kg, ig measured daily for 6 days (Rvb < 20%); type: functional; settings: ATCC 14053, po, 144 h, time 6 day
[25] = Toxicity in Balb/c mouse infected with FLC-resistant Candida albicans ATCC 14053 assessed as weight loss at 15 mg/kg, ig measured daily for 6 days; type: organism-based; settings: in vivo, po, 144 h, time 6 day
Candida albicans [26] = test: In vivo antifungal activity against FLC-resistant Candida albicans ATCC 14053 infected in Balb/c mouse assessed as reduction in kidney fungal load at 7.5 to 15 mg/kg, ig measured after 6 days in presence of fluconazole; type: functional, organism-based; settings: dose 7.5-15 mg/kg, time 6.0 day
Candida albicans [27] = test: In vivo antifungal activity against FLC-resistant Candida albicans ATCC 14053 infected in Balb/c mouse assessed as reduction in lung fungal load at 7.5 to 15 mg/kg, ig measured after 6 days in presence of fluconazole; type: functional, organism-based; settings: dose 7.5-15 mg/kg, time 6.0 day
Candida albicans [28] = test: In vivo antifungal activity against FLC-resistant Candida albicans ATCC 14053 infected in Balb/c mouse assessed as reduction in lung fungal load at 15 mg/kg, ig measured after 6 days; type: functional, organism-based; settings: time 6.0 day
Candida albicans [29] = test: In vivo antifungal activity against FLC-resistant Candida albicans ATCC 14053 infected in Balb/c mouse assessed as restoration of normal kidney morphology at 15 mg/kg, ig measured after 6 days by H and E staining based histopathological analysis; type: functional, organism-based; settings: time 6.0 day
Candida albicans [30] = test: In vivo antifungal activity against FLC-resistant Candida albicans ATCC 14053 infected in Balb/c mouse assessed as restoration of normal lung morphology at 15 mg/kg, ig measured after 6 days by H and E staining based histopathological analysis; type: functional, organism-based; settings: time 6.0 day
Candida albicans [31] = test: In vivo antifungal activity against FLC-resistant Candida albicans ATCC 14053 infected in Balb/c mouse assessed as reduction in renal injury at 15 mg/kg, ig measured after 6 days by H and E staining based histopathological analysis; type: functional, organism-based; settings: time 6.0 day
Candida albicans [32] = test: In vivo antifungal activity against FLC-resistant Candida albicans ATCC 14053 infected in Balb/c mouse assessed as reduction in infiltration of inflammatory cells at 15 mg/kg, ig measured after 6 days by H and E staining based histopathological analysis; type: functional, organism-based; settings: time 6.0 day
Candida albicans [33] = test: In vivo antifungal activity against FLC-resistant Candida albicans ATCC 14053 infected in Balb/c mouse assessed as reduction in infiltration of inflammatory cells at 7.5 to 15 mg/kg, ig measured after 6 days in presence of fluconazole by H and E staining based histopathological analysis; type: functional, organism-based; settings: dose 7.5-15 mg/kg, time 6.0 day

CN1CCN(c2nc3ccccc3cc2/C=C/C(=O)c2ccc(N3CCN(Cc4ccc(C(F)(F)F)cc4)CC3)cc2)CC1
MIC80 (Candida albicans [1]): 1.2 µg/mL
fractional inhibitory concentration index (FICI) (Candida albicans [2]): 0.03
MIC80 (Candida albicans [3]): > 40 µg/mL
MIC80 (Candida albicans [4]): > 40 µg/mL
MIC80 (Candida albicans [5]): > 40 µg/mL
MIC80 (Candida albicans [6]): > 40 µg/mL
MIC80 (Candida albicans [7]): 5.67 µg/mL
MIC80 (Candida albicans [8]): 5.9 µg/mL
MIC80 (Candida albicans [9]): 1.2 µg/mL
MIC80 (Candida albicans [10]): 1.22 µg/mL
MIC80 (Candida albicans [11]): 0.91 µg/mL
fractional inhibitory concentration index (FICI) (Candida albicans [12]): 0.15
fractional inhibitory concentration index (FICI) (Candida albicans [13]): 0.03
fractional inhibitory concentration index (FICI) (Candida albicans [14]): 0.03
inhibition (Candida albicans [15]): inactive
inhibition (Candida albicans [16]): Active
inhibition (Candida albicans [17]): Active
inhibition (Candida albicans [18]): inactive
inhibition (Candida albicans [19]): inactive
inhibition (Candida albicans [20]): inactive
inhibition (Candida albicans [21]): inactive
Activity (Candida albicans [22]): Active
Activity [23]: Non-Toxic
survival at 15 mg/kg (Candida albicans [24]): 30%
Activity [25]: Toxic
Activity (Candida albicans [26]): Active
Activity (Candida albicans [27]): inactive
Activity (Candida albicans [28]): inactive
Activity (Candida albicans [29]): inactive
Activity (Candida albicans [30]): inactive
Activity (Candida albicans [31]): inactive
Activity (Candida albicans [32]): inactive
Activity (Candida albicans [33]): Active

From ChEMBL document CHEMBL5625249, “Optimization and antifungal activity of quinoline derivatives linked to chalcone moiety combined with FLC against Candida albicans” (Eur J Med Chem, 2023)
